# Patent publication US9340510B2, “Tetrahydroisoquinoline derivatives, pharmaceutical compositions and uses thereof” (Boehringer Ingelheim International GmbH, priority 2014, dated 2016)
# Molecular target: human ACC2 (Homo sapiens (Human), UniProt O00763)
# Experiment: ACC2 assay: spectrophotometric 384 well assay (coupled lactate dehydrogenase/pyruvate kinase)
# Type: biochemical
# Details: hACC2 construct lacking the 128 N-terminal amino acids, 25° C., 340 nm
# Description: Spectrophotometric 384 Well Assay
# Malonyl CoA formation by acetyl CoA carboxylases is stoichiometrically linked to the consumption of ATP. ACC2 activity is measured in a […] kinetic method measuring ADP generated during the ACC reaction using a coupled lactate dehydrogenase/pyruvate kinase reaction.
# For biological testing, a human ACC2 construct which lacks the 128 amino acids at the N-terminus for increased solubility (nt 385-6966 in Genbank entry AJ575592) is cloned. The protein is then expressed in insect cells using a baculoviral expression system. Protein purification is performed by anion exchange.
# All compounds are dissolved in dimethyl sulfoxide (DMSO) to a concentration of 10 mM.
# Assay reactions are then carried out in 384-well plates, with hACC2 in an appropriate dilution and at final assay concentrations (f.c.) of 100 mM Tris (pH 7.5), 10 mM trisodium citrate, 25 mM KHCO3, 10 mM MgCl2, 0.5 mg/ml BSA, 3.75 mM reduced L-glutathione, 15 U/ml lactate dehydrogenase, 0.5 mM phosphoenolpyruvate, 15 U/ml pyruvate kinase, compounds at different concentrations at final DMSO concentrations of 1%.
# The enzymatic reaction is then started by addition of a mixture of NADH, acetyl Coenzyme A (both […].) and ATP (500 uM f.c.). The decrease of the optical density (slope S) is then determined at 25° C. at a wavelength of 340 nm over 15 minutes in a spectrophotometric reader.
# Each assay microtiter plate contains wells with vehicle instead of compound as controls for the non-inhibited enzyme (100% CTL; ‘HIGH’) and wells without acetyl-CoA as controls for non-specific NADH degradation (0% CTL; ‘LOW’).
# The slope S is used for calculation of % CTL=(S(compound)−S(‘LOW’))/(S(‘HIGH’)−S(‘LOW’))*100. Compounds will give values between 100% CTL (no inhibition) and 0% CTL (complete inhibition).
# For IC50 value determination, the sample slope in the presence of the test compound after subtraction of the low controls (S(compound)−S(‘LOW’)) are used.
# An IC50 value is derived from the compound slopes at different dosages after subtraction of the low controls (S(compound)-S(‘LOW’)) by non-linear regression curve fitting (equation y=(A+((B−A)/(1+((C/x)^D))))).
# Chain of human ACC2 (O00763 129-2458): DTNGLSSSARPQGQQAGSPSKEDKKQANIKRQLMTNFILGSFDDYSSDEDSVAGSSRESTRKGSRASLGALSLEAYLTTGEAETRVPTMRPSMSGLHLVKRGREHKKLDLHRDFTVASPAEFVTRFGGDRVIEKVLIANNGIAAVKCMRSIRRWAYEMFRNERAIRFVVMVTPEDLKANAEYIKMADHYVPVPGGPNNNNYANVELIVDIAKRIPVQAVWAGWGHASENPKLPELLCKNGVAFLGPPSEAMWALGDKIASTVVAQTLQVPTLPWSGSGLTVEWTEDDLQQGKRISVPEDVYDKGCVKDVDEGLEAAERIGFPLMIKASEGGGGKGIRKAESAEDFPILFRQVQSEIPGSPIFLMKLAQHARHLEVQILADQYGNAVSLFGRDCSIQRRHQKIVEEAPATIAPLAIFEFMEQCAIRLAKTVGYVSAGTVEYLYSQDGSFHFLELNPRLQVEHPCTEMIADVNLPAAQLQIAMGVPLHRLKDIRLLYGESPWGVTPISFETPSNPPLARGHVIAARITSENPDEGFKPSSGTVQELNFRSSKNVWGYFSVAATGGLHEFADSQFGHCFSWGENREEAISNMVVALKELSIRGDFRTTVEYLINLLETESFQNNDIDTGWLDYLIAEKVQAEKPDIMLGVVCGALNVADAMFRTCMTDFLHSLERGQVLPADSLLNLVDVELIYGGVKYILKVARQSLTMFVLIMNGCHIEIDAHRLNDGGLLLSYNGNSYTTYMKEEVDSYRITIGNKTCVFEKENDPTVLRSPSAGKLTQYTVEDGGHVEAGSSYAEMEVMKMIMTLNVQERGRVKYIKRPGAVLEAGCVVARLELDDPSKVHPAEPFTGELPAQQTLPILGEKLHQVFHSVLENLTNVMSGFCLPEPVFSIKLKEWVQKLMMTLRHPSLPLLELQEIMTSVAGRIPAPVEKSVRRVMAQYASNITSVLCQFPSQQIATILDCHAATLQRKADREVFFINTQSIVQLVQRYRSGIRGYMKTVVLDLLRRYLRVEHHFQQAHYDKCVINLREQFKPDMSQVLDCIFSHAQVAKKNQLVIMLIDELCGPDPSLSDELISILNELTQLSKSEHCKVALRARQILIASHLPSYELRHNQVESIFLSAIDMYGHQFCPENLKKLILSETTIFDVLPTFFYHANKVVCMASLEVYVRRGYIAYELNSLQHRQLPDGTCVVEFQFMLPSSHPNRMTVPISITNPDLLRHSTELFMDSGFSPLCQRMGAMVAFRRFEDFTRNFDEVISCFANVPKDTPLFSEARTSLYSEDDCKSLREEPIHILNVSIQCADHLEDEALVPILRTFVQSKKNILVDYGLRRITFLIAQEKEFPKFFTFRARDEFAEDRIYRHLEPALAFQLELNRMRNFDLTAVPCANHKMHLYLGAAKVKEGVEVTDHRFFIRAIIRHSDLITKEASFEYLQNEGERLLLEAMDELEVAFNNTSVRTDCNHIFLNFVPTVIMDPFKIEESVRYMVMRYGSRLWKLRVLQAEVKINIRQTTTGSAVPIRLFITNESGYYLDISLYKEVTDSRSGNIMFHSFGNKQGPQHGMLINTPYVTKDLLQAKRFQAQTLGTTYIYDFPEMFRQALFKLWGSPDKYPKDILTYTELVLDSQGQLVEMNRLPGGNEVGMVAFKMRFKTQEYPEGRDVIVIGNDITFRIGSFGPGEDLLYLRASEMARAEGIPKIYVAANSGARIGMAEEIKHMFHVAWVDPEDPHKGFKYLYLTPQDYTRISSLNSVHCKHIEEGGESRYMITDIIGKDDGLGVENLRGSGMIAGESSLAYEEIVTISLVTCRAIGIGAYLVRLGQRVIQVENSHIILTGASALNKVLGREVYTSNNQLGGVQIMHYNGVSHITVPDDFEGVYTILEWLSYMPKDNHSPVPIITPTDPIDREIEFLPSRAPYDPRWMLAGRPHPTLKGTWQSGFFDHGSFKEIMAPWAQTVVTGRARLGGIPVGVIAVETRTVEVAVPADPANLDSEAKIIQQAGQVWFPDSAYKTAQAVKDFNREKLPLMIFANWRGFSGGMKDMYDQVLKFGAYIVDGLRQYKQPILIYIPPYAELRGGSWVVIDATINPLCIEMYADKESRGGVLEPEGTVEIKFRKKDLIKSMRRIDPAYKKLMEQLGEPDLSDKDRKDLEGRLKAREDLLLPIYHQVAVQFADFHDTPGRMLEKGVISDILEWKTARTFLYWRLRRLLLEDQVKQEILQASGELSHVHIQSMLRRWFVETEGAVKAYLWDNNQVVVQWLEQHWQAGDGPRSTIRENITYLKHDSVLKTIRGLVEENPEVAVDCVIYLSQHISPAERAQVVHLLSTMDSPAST
row,IC50 [nM],SMILES
1,185,CCC(=O)N[C@@H](C)c1ccc(CN2CC(=O)c3cc(OCC4CC4(F)F)ccc3C2)cc1 (stereo partly drawn) [Example 7.007]
2,22,CCC(=O)N[C@@H](C)c1ccc(CN2Cc3ccc(OCC4CC4)cc3C(F)C2)cc1 (stereo partly drawn) [Example 3.024]
3,46,C[C@H](NC(=O)C1(C#N)CC1)c1ccc(CN2Cc3ccc(OCC4CC4(F)F)cc3C(F)C2)cc1 (stereo partly drawn) [Example 3.028]
4,198,C[C@H](NC(=O)C1CC(F)(F)C1)c1ccc(CN2CCc3cc(OCC4CC4(F)F)ccc3C2)cc1 (stereo partly drawn) [Example 3.021]
5,231,CC(=O)Nc1nc(C)c(C(=O)N[C@@H](C)c2ccc(CN3Cc4ccc(OCC5CC5)cc4C(O)C3)cc2)s1 (stereo partly drawn) [Example 3.045]
6,33,Cc1nocc1C(=O)N[C@@H](C)c1ccc(CN2CCc3cc(OCC4CC4(F)F)ccc3C2)cc1 (stereo partly drawn) [Example 3.020]
7,46,C[C@H](NC(=O)c1cnn(C)c1)c1ccc(CN2CCc3cc(OCC4CC4(F)F)ccc3C2)cc1 (stereo partly drawn) [Example 3.004]
8,198,C[C@H](NC(=O)C1CC1)c1ccc(CN2Cc3ccc(OCC4CC4)cc3C(O)C2)cc1 (stereo partly drawn) [Example 3.038]
9,354,C[C@H](NC(=O)C1(C#N)CC1)c1ccc(CN2Cc3ccc(OCC4CC4)cc3C(O)C2)cc1 (stereo partly drawn) [Example 3.043]
10,25,C[C@H](NC(=O)c1cn[nH]c1)c1ccc(CN2CCc3cc(OCC4CC4(F)F)ccc3C2)cc1 (stereo partly drawn) [Example 3.010]
11,25,C[C@H](NC(=O)C(F)F)c1ccc(CN2CCc3cc(OCC4CC4(F)F)ccc3C2)cc1 (stereo partly drawn) [Example 4.003]
12,26,CC(=O)N[C@@H](C)c1ccc(CN2CCc3cc(OCC4CC4(F)F)ccc3C2)cc1 (stereo partly drawn) [Example 7.003]
13,357,C[C@H](NC(=O)C1COCCN1)c1ccc(CN2Cc3ccc(OCC4CC4)cc3C(F)C2)cc1 (stereo partly drawn) [Example 3.057]
14,59,C[C@H](NC(=O)c1cnco1)c1ccc(CN2CCc3cc(OCC4CC4(F)F)ccc3C2)cc1 (stereo partly drawn) [Example 3.009]
15,115,C[C@H](NC(=O)CC(N)=O)c1ccc(CN2Cc3ccc(OCC4CC4)cc3C(F)C2)cc1 (stereo partly drawn) [Example 3.034]
16,132,C[C@H](O)C(=O)N[C@@H](C)c1ccc(CN2Cc3ccc(OCC4CC4)cc3C(F)C2)cc1 (stereo partly drawn) [Example 3.060]
17,148,CC(=O)N[C@@H](C)c1ccc(CN2CCc3c(Br)cccc3C2)cc1 [Example 7.004]
18,604,C[C@H](NC(=O)CC#N)c1ccc(CN2Cc3ccc(OCC4CC4)cc3C(O)C2)cc1 (stereo partly drawn) [Example 3.051]
19,49,C[C@H](NC(=O)CC#N)c1ccc(CN2Cc3ccc(OCC4CC4)cc3C(F)C2)cc1 (stereo partly drawn) [Example 3.026]
20,55,C[C@H](NC(=O)C1(N)CC1)c1ccc(CN2Cc3ccc(OCC4CC4)cc3C(F)C2)cc1 (stereo partly drawn) [Example 3.055]
21,266,C[C@H](NC(=O)c1cn[nH]c1)c1ccc(CN2Cc3ccc(OCC4CC4)cc3C(O)C2)cc1 (stereo partly drawn) [Example 3.063]
22,45,C[C@H](NC(=O)[C@H]1C[C@H](F)C1)c1ccc(CN2Cc3ccc(OCC4CC4)cc3C(F)C2)cc1 (stereo partly drawn) [Example 3.023]
23,102,C[C@H](NC(=O)C1(O)CC1)c1ccc(CN2Cc3ccc(OCC4CC4)cc3C(F)C2)cc1 (stereo partly drawn) [Example 3.062]
24,104,CC(=O)N[C@@H](C)c1ccc(CN2CCc3c(cccc3C(F)(F)F)C2)cc1 [Example 7.002]
25,59,CNC(=O)N[C@@H](C)c1ccc(CN2CCc3cc(OCC4CC4(F)F)ccc3C2)cc1 (stereo partly drawn) [Example 5.002]
26,52,C[C@H](NC(=O)c1ccon1)c1ccc(CN2CCc3cc(OCC4CC4(F)F)ccc3C2)cc1 (stereo partly drawn) [Example 3.011]

# Second part, the compound before the results:
row,SMILES,IC50 [nM]
1,CC(=O)Nc1nc(C)c(C(=O)N[C@@H](C)c2ccc(CN3Cc4ccc(OCC5CC5(F)F)cc4C(O)C3)cc2)s1 (stereo partly drawn) [Example 2.035],259
2,CC(=O)NC(C)c1ccc(CN2CCc3cc(OCC(F)F)ccc3C2)cc1 (stereo not drawn) [Example 1.010],614
3,C[C@H](NC(=O)c1cn[nH]c1)c1ccc(CN2CCc3c(cccc3C(F)(F)F)C2)cc1 [Example 2.008],100
4,C[C@H](NC(=O)C1CC1)c1ccc(CN2CCc3c(ccc(OCC4CC4(F)F)c3Cl)C2)cc1 (stereo partly drawn) [Example 1.049],63
5,CC(=O)NC(C)c1ccc(CN2CCc3cc(OCCC4CC4)ccc3C2)cc1 (stereo not drawn) [Example 1.012],52
6,COc1cccc2c1CCN(Cc1ccc([C@H](C)NC(=O)c3sc(NC(C)=O)nc3C)cc1)C2 [Example 2.003],157
7,C[C@H](NC(=O)CO)c1ccc(CN2CC(=O)c3cc(OCC4CC4(F)F)ccc3C2)cc1 (stereo partly drawn) [Example 2.039],565
8,CC(=O)N[C@@H](C)c1ccc(CN2Cc3ccc(OCC4CC4(F)F)cc3C(O)C2)cc1 (stereo partly drawn) [Example 1.091],130
9,COc1c(OCCC(F)F)ccc2c1CCN(Cc1ccc([C@H](C)NC(C)=O)cc1)C2 [Example 1.072],141
10,CC(=O)NC(C)c1ccc(CN2CCc3c(ccc(OCC4CCC4)c3Cl)C2)cc1 (stereo not drawn) [Example 1.033],44
11,"CC(=O)NC(C)c1ccc(CN2CCc3cc(C(F)(F)F)ccc3C2)cc1 (stereo not drawn) [Example 1.001, N-{1-[4-(6-Trifluoromethyl-3,4-dihydro-1H-isoquinolin-2-ylmethyl)-phenyl]-ethyl}-acetamide]",293
12,CC(O)C(=O)N[C@@H](C)c1ccc(CN2CC(=O)c3cc(OCC4CC4)ccc3C2)cc1 (stereo partly drawn) [Example 2.042],624
13,C[C@H](NC(=O)c1cncnc1)c1ccc(CN2CC(=O)c3cc(OCC4CC4(F)F)ccc3C2)cc1 (stereo partly drawn) [Example 2.038],819
14,CC(=O)N[C@@H](C)c1ccc(CN2CCc3c(ccc(OCC4(C(F)(F)F)CC4)c3Cl)C2)cc1 [Example 1.062],55
15,CC(=O)NC(C)c1ccc(CN2CCc3cc(OCC4CC(F)(F)C4)ccc3C2)cc1 (stereo not drawn) [Example 1.015],47
16,CC(=O)N[C@@H](C)c1ccc(CN2CCc3cc(OCC4CC4(F)F)ccc3C2C)cc1 (stereo partly drawn) [Example 1.082],39
17,COc1c(OCc2ccccc2)ccc2c1CCN(Cc1ccc(C(C)NC(C)=O)cc1)C2 (stereo not drawn) [Example 1.036],101
18,CC(=O)NC(C)c1ccc(CN2CCc3c(ccc(OCC(F)F)c3Cl)C2)cc1 (stereo not drawn) [Example 1.038],218
19,CC(=O)N[C@@H](C)c1ccc(CN2Cc3ccc(OCC4CC4)cc3C(O)C2)cc1 (stereo partly drawn) [Example 1.096],315

row,SMILES,IC50 [nM]
1,CC(O)C(=O)N[C@@H](C)c1ccc(CN2CCc3cc(OC[C@@H]4CC4(F)F)ccc3C2)cc1 (stereo partly drawn) [Example 2.027],130
2,COc1c(OCCCF)ccc2c1CCN(Cc1ccc([C@H](C)NC(C)=O)cc1)C2 [Example 1.065],211
3,CC(=O)NC(C)c1ccc(CN2CCc3c(cccc3OCC3CC3(F)F)C2)cc1 (stereo not drawn) [Example 1.008],492
4,COc1c(OCCC2CC2)ccc2c1CCN(Cc1ccc([C@H](C)NC(C)=O)cc1)C2 [Example 1.077],40
5,COc1ccc2c(c1F)CCN(Cc1ccc([C@H](C)NC(C)=O)cc1)C2 [Example 1.080],396
6,"COc1cccc2c1CCN(Cc1ccc([C@H](C)NC(=O)c3cncs3)cc1)C2 [Example 2.001, Thiazole-5-carboxylic acid {(S)-1-[4-(5-methoxy-3,4-dihydro-1H-isoquinolin-2-ylmethyl)-phenyl]-ethyl}-amide]",135
7,C[C@H](NC(=O)CO)c1ccc(CN2CC(=O)c3cc(OCC4CC4)ccc3C2)cc1 [Example 2.041],600
8,C[C@H](NC(=O)C1CC(F)C1)c1ccc(CN2Cc3ccc(OCC4CC4(F)F)cc3C(O)C2)cc1 (stereo partly drawn) [Example 2.036],408
9,C[C@H](NC(=O)CC#N)c1ccc(CN2CC(=O)c3cc(OCC4CC4)ccc3C2)cc1 [Example 2.043],428
10,COc1c(OCC2CCC2)ccc2c1CCN(Cc1ccc([C@H](C)NC(C)=O)cc1)C2 [Example 1.073],40
11,CC(=O)NC(C)c1ccc(CN2CCc3c(ccc(OCC(C)C)c3Cl)C2)cc1 (stereo not drawn) [Example 1.030],58
12,CC(=O)NC(C)c1ccc(CN2CCc3cc(OC4CCC4)ccc3C2)cc1 (stereo not drawn) [Example 1.020],110
13,C[C@H](NC(=O)C1CC1)c1ccc(CN2CCc3cc(OCCCF)ccc3C2)cc1 [Example 2.016],299
14,CC(=O)NC(C)c1ccc(CN2CCc3cc(OC(C)C)ccc3C2)cc1 (stereo not drawn) [Example 1.021],110
15,CC(=O)NC(C)c1ccc(CN2CCc3cc(C(F)F)ccc3C2)cc1 (stereo not drawn) [Example 1.028],789
16,CCOc1ccc2c(c1)CCN(Cc1ccc([C@H](C)NC(=O)C3CC3)cc1)C2 [Example 1.043],180
17,C[C@H](NC(=O)C1CC1)c1ccc(CN2CCc3cc(OCC4CC4)ccc3C2)cc1 [Example 1.042],65
18,CC(=O)NC(C)c1ccc(CN2CCc3c(cccc3C(F)F)C2)cc1 (stereo not drawn) [Example 1.027],699
